Reference: article PMC3905752 (Nature chemical biology, 2013)

Tests used:
Type in all cases: biochemical
Cdc34A^Glu133Arg [1] = target: T1, Cdc34A^Glu133Arg (Homo sapiens, UniProt P49427, E133R); experiment: Sic1-SCF^Cdc4 ubiquitination assay with Cdc34A^Glu133Arg mutant; conditions: Cdc34A^Glu133Arg mutant, wild type ubiquitin
T1 sequence (P49427 1-236 E133R): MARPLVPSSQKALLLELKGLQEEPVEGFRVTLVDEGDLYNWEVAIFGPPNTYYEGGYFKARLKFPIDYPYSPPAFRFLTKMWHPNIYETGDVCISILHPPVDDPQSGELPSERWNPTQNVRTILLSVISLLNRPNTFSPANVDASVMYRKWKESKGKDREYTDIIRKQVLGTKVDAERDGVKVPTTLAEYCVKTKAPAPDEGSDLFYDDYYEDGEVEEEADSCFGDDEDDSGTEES

Cdc34A^Glu133Arg [2] = target: Cdc34A^Glu133Arg (Homo sapiens, UniProt P49427, E133R); experiment: as above; conditions: Cdc34A^Glu133Arg mutant with Ub^Arg42Glu mutant
[3] = target: ubiquitin~Cdc34A thioester (Homo sapiens, UniProt P0CG48+P49427, K48R); experiment: Spontaneous hydrolysis of the ubiquitin~Cdc34A^FL thioester; conditions: 100 μM CC0651

## COCC(=O)N[C@@H](Cc1ccc(-c2cc(Cl)cc(Cl)c2)cc1)[C@H](O)[C@@H](O)C(=O)O [CC0651, (2R,3S,4S)-5-(3′,5′-Dichloro-[1,1′-biphenyl]-4-yl)-2,3-dihydroxy-4-(2 methoxyacetamido)pentanoic acid]
Cdc34A^Glu133Arg [1]
  Sensitivity of Sic1 ubiquitination to CC0651: insensitivity
Cdc34A^Glu133Arg [2]
  Sensitivity of Sic1 ubiquitination to CC0651: restored
[3]
  Effect on hydrolysis of the ubiquitin~Cdc34A thioester to water: inhibited
